# Target: T1, recombinant METTL3/METTL14 complex (Homo sapiens, UniProt Q86U44)
# T1 construct: purchased Active Motif 311970; host or cells: Sf9 cells
# Test: METTL3/14 Scintillation Proximity Assay (SPA), RNA methyltransferase activity
# Format: biochemical
# Conditions: 5.31 nM METTL3/14 complex, 250 nM RNA substrate, 1 μM 3H-SAM, 90 min; for compounds marked * best of the two separated forms
# T1 sequence (Q86U44 whole entry): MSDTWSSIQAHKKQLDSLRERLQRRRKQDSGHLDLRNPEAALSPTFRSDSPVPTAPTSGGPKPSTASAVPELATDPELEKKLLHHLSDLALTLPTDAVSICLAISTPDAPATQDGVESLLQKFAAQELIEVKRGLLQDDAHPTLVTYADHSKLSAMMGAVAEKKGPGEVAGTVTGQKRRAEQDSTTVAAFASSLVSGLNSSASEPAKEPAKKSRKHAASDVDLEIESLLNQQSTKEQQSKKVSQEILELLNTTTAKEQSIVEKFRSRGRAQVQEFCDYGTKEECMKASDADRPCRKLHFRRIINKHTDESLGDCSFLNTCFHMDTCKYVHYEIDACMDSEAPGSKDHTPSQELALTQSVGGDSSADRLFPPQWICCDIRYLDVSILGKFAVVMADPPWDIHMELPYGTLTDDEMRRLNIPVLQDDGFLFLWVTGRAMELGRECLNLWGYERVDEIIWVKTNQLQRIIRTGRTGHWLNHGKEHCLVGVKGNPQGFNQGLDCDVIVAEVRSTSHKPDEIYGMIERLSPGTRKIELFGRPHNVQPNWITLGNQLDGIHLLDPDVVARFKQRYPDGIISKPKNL
# T1 sequence (Q9HCE5 whole entry partner): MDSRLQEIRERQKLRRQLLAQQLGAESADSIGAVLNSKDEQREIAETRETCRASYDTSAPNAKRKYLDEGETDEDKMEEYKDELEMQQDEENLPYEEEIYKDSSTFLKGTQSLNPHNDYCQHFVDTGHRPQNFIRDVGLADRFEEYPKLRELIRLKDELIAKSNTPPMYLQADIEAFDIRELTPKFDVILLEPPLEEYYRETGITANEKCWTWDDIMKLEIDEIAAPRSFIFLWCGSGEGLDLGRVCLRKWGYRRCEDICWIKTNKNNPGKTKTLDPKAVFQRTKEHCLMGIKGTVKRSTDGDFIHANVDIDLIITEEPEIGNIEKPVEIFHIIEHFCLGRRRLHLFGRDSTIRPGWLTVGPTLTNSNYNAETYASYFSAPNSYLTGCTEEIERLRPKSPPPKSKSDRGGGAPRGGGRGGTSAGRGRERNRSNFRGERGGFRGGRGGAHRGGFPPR
row,SMILES,IC50
1,"COc1cncc(-c2cn(C3(c4ccc(N5CCC[C@@H](NCC6CCC6)C5)nn4)CC3)nn2)c1 [Compound 115, (R)-N-(cyclobutylmethyl)-1-(6-(1-(4-(5-methoxypyridin-3-yl)-1H-1,2,3-triazol-1-yl)cyclopropyl)pyridazin-3-yl)piperidin-3-amine]",≤ 50 nM
2,"O=c1cc(-c2cn(Cc3ccc(N4CCC[C@@H](NCC5CCC5)C4)cn3)nn2)nc2ccccn12 [Compound 127, (R)-2-(1-((5-(3-((cyclobutylmethyl)amino)piperidin-1-yl)pyridin-2-yl)methyl)-1H-1,2,3-triazol-4-yl)-4H-pyrido[1,2-a]pyrimidin-4-one]",≤ 50 nM
3,"O=c1cc(-c2cn(Cc3ccc(N4CCC[C@@H](NCC5CCC5)C4)cc3)nn2)nc2ccccn12 [Compound 128, (R)-2-(1-(4-(3-((cyclobutylmethyl)amino)piperidin-1-yl)benzyl)-1H-1,2,3-triazol-4-yl)-4H-pyrido[1,2-a]pyrimidin-4-one]",≤ 50 nM
4,"COc1cncc(NC(=O)C(C)c2ccc(N3CCC[C@@H](NCC4CCC4)C3)nn2)c1 (stereo partly drawn) [Compound 141, 2-(6-((R)-3-((cyclobutylmethyl)amino)piperidin-1-yl)pyridazin-3-yl)-N-(5-methoxypyridin-3-yl)propanamide]",50 to 500 nM
5,"COc1cncc(-c2nnn(Cc3ccc(N4CCC[C@@H](NCC5CCC5)C4)cc3)n2)c1 [Compound 145, (R)-N-(cyclobutylmethyl)-1-(4-((5-(5-methoxypyridin-3-yl)-2H-tetrazol-2-yl)methyl)phenyl)piperidin-3-amine]",50 to 500 nM
6,"C=C(c1ccc(N2CCC[C@@H](NCC3CCC3)C2)cc1)n1cc(-c2cncc(N(C)C)c2)nn1 [Compound 155, (R)-5-(1-(1-(4-(3-((cyclobutylmethyl)amino)piperidin-1-yl)phenyl)vinyl)-1H-1,2,3-triazol-4-yl)-N,N-dimethylpyridin-3-amine]",≤ 50 nM
7,"CC(C(=O)Nc1cncc(N(C)C)c1)c1ccc(N2CCC[C@@H](NCC3CCC3)C2)nn1 (stereo partly drawn) [Compound 157, 2-(6-((R)-3-((cyclobutylmethyl)amino)piperidin-1-yl)pyridazin-3-yl)-N-(5-(dimethylamino)pyridin-3-yl)propanamide]",50 to 500 nM
8,Cc1cc(N2CCC[C@@H](NCC3CC3)C2)cc(=O)n1Cn1cc(-c2cncc(N(C)C)c2)nn1 [Compound 163],≤ 50 nM
9,"CC(C(=O)Nc1cncc(N2CCCC2)c1)c1ccc(N2CCC[C@@H](NCC3CC3)C2)nn1 (stereo partly drawn) [Compound 251, 2-(6-((R)-3-((cyclopropylmethyl)amino)piperidin-1-Yl)pyridazin-3-yl)-N-(5-(pyrrolidin-1-yl)pyridin-3-yl)propanamide]",≤ 50 nM
10,"COc1cncc(-c2cn(C(C)c3ccc(N4CCC[C@@H](NCC5CC5)C4)cn3)nn2)n1 (stereo partly drawn) [Compound 261, (3R)—N-(cyclopropylmethyl)-1-(6-(1-(4-(6-methoxypyrazin-2-yl)-1H-1,2,3-triazol-1-yl)ethyl)pyridin-3-yl)piperidin-3-amine]",≤ 50 nM
11,"CC(C(=O)Nc1cc(=O)n2ccccc2n1)c1ccc(N2CCC[C@@H](NCC3CCC3)C2)cn1 (stereo partly drawn) [Compound 265, 2-(5-((R)-3-((cyclobutylmethyl)amino)piperidin-1-yl)pyridin-2-yl)-N-(4-oxo-4H-pyrido[1,2-a]pyrimidin-2-yl)propanamide]",≤ 50 nM
12,"O=C(Cc1ccc(N2CCC[C@@H](NCC3CCC3)C2)cn1)Nc1cncc(N2CCCC2)c1 [Compound 271, (R)-2-(5-(3-((cyclobutylmethyl)amino)piperidin-1-yl)pyridin-2-yl)-N-(5-(pyrrolidin-1-yl)pyridin-3-yl)acetamide]",≤ 50 nM
13,"COc1cc(NC(=O)C2(c3ccc(N4CCC[C@@H](NCC5CCC5)C4)cn3)COC2)c2cn[nH]c2c1 [Compound 273, (R)-3-(5-(3-((cyclobutylmethyl)amino)piperidin-1-yl)pyridin-2-yl)-N-(6-methoxy-1H-indazol-4-yl)oxetane-3-carboxamide]",≤ 50 nM
14,"CC(C(=O)Nc1cncc(N2CCCC2)n1)c1ccc(N2CCC[C@@H](NCC3CCC3)C2)cn1 (stereo partly drawn) [Compound 274, 2-(5-((R)-3-((cyclobutylmethyl)amino)piperidin-1-yl)pyridin-2-yl)-N-(6-(pyrrolidin-1-yl)pyrazin-2-yl)propanamide]",≤ 50 nM
15,"CC(C(=O)Nc1cc(=O)n2ccccc2n1)c1ccc(N2CCC[C@@H](NCC3CCC3)C2)nn1 (stereo partly drawn) [Compound 275, 2-(6-((R)-3-((cyclobutylmethyl)amino)piperidin-1-yl)pyridazin-3-yl)-N-(4-oxo-4H-pyrido[1,2-a]pyrimidin-2-yl)propanamide]",50 to 500 nM
16,"O=C(Cc1ccc(N2CCC[C@@H](NCC3CCC3)C2)cn1)Nc1cncc(N2CCCC2)n1 [Compound 277, (R)-2-(5-(3-((cyclobutylmethyl)amino)piperidin-1-yl)pyridin-2-yl)-N-(6-(pyrrolidin-1-yl)pyrazin-2-yl)acetamide]",≤ 50 nM

# Second part, the molecule after the results:
row,IC50,SMILES
1,≤ 50 nM,"COc1cnc(C)c(-c2cn(C(C)n3ccc(N4CCC[C@@H](NCC5CCC5)C4)cc3=O)nn2)c1 (stereo partly drawn) [Compound 114, 4-((R)-3-((cyclobutylmethyl)amino)piperidin-1-yl)-1-(1-(4-(5-methoxy-2-methylpyridin-3-yl)-1H-1,2,3-triazol-1-yl)ethyl)pyridin-2(1H)-one]"
2,≤ 50 nM,"COc1cnnc(-c2cn(Cc3ccc(N4CCC[C@@H](NCC5CCC5)C4)cn3)nn2)c1 [Compound 118, (R)-N-(cyclobutylmethyl)-1-(6-((4-(5-methoxypyridazin-3-yl)-1H-1,2,3-triazol-1-yl)methyl)pyridin-3-yl)piperidin-3-amine]"
3,≤ 50 nM,"COc1cncc(-c2nnc(C(C)n3ccc(N4CCC[C@@H](NCC5CCC5)C4)cc3=O)s2)c1 (stereo partly drawn) [Compound 119, 4-((R)-3-((cyclobutylmethyl)amino)piperidin-1-yl)-1-(1-(5-(5-methoxypyridin-3-yl)-1,3,4-thiadiazol-2-yl)ethyl)pyridin-2(1H)-one]"
4,≤ 50 nM,"CNc1cncc(-c2cn(C(C)n3ccc(N4CCC[C@@H](NCC5CCC5)C4)cc3=O)nn2)n1 (stereo partly drawn) [Compound 121, 4-((R)-3-((cyclobutylmethyl)amino)piperidin-1-yl)-1-(1-(4-(6-(methylamino)pyrazin-2-yl)-1H-1,2,3-triazol-1-yl)ethyl)pyridin-2(1H)-one]"
5,50 to 500 nM,"COc1cncc(-c2noc(C(C)n3ccc(N4CCC[C@@H](NCC5CCC5)C4)cc3=O)n2)c1 (stereo partly drawn) [Compound 125, 4-((R)-3-((cyclobutylmethyl)amino)piperidin-1-yl)-1-(1-(3-(5-methoxypyridin-3-yl)-1,2,4-oxadiazol-5-yl)ethyl)pyridin-2(1H)-one]"
6,≤ 50 nM,CC(n1cc(-c2cncc(OC(F)F)c2)nn1)n1ccc(N2CCC[C@@H](NCC3CCC3)C2)cc1=O (stereo partly drawn) [Compound 131]
7,≤ 50 nM,"COc1cnnc(-c2cn(Cc3ccc(N4CCC[C@@H](NCC5CCC5)C4)cc3)nn2)c1 [Compound 136, (R)-N-(cyclobutylmethyl)-1-(4-((4-(5-methoxypyridazin-3-yl)-1H-1,2,3-triazol-1-yl)methyl)phenyl)piperidin-3-amine]"
8,≤ 50 nM,CC(n1cc(-c2cncc3[nH]ncc23)nn1)n1ccc(N2CCC[C@@H](NCC3CCC3)C2)cc1=O (stereo partly drawn) [Compound 147]
